SMILES strings stand for the structures.

For this test, the target named is T1, human TGR5 (Homo sapiens, UniProt Q8TDU6).
T1 construct: expressed in transfected cells; host or cells: HEK293
T1 sequence (Q8TDU6 1-330): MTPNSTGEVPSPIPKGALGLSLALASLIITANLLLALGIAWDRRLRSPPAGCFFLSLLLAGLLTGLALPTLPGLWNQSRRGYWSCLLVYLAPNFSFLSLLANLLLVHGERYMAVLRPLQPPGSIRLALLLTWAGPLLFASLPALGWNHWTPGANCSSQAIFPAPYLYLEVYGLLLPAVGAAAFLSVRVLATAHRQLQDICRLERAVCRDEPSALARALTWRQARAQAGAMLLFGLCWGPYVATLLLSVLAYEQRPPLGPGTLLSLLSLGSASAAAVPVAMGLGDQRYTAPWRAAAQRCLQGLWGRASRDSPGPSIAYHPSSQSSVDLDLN
The experiment in a line: Cell-based TGR5 assay (cAMP generation, HTRF). Particulars: HEK293 cells stably transfected with human TGR5; cAMP by HTRF; 30 minutes at 37° C.; read-out: pEC50 Human TGR5 (converted). In short, it runs like this: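 First, compounds in 3-fold serial dilution were placed in HBSS with 10 mM HEPES pH 7.4 and 0.5 mM IBMX. Next, human TGR5-expressing HEK293 cells were added and incubated 30 min at 37° C. Finally, cAMP was detected by HTRF and pEC50 derived by logistic fitting.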
Regarding `Cc1ccc(C(C)CCCC(=O)N(CCS(C)(=O)=O)C[C@H](O)[C@@H](O)[C@H](O)[C@H](O)CO)cc1CNC1(c2cnccc2-c2ccccc2OC2CC2)CC1` (stereo partly drawn) [Compound I-369, 5-{3-[({1-[4-(2-cyclopropoxyphenyl)pyridin-3-yl]cyclopropyl}amino)methyl]-4-methylphenyl}-N-(2-methanesulfonylethyl)-N-[(2S,3R,4R,5R)-2,3,4,5,6-pentahydroxyhexyl]hexanamide], the EC50 is less than 100 nM. Then `Cc1ccc(C(C)CCCC(=O)N(CCCS(C)(=O)=O)C[C@H](O)[C@@H](O)[C@H](O)[C@H](O)CO)cc1CNC1(c2cnccc2-c2ccccc2OC2CC2)CC1` (stereo partly drawn) [Compound I-370, 5-{3-[({1-[4-(2-cyclopropoxyphenyl)pyridin-3-yl]cyclopropyl}amino)methyl]-4-methylphenyl}-N-(3-methanesulfonylpropyl)-N-[(2S,3R,4R,5R)-2,3,4,5,6-pentahydroxyhexyl]hexanamide], with less than 100 nM. Consider `Cc1ccc(C(C)CCCC(=O)N2CCN(CC(=O)NC[C@H](O)[C@@H](O)[C@H](O)[C@H](O)CO)CC2)cc1CNC1(c2cnccc2-c2ccccc2OC2CC2)CC1` (stereo partly drawn) [Compound I-371, 2-[4-(5-{3-[({1-[4-(2-cyclopropoxyphenyl)pyridin-3-yl]cyclopropyl}amino)methyl]-4-methylphenyl}hexanoyl)piperazin-1-yl]-N-[(2S,3R,4R,5R)-2,3,4,5,6-pentahydroxyhexyl]acetamide], for which the EC50 was less than 100 nM. Regarding `CC(CCCC(=O)NCCN1CCN(C(=O)NC[C@H](O)[C@@H](O)[C@H](O)[C@H](O)CO)CC1)c1ccc(Cl)c(CN(C(=O)NC[C@H](O)[C@@H](O)[C@H](O)[C@H](O)CO)C2(c3cnccc3-c3ccccc3OC3CC3)CC2)c1` (stereo partly drawn) [Compound I-372, 4-[2-(5-{4-chloro-3-[(1-{l-[4-(2-cyclopropoxyphenyl)pyridin-3-yl]cyclopropyl}{[(2S,3R,4R,5R)-2,3,4,5,6-pentahydroxyhexyl]carbamoyl}amino)methyl]phenyl}hexanamido)ethyl]-N-[(2S,3R,4R,5R)-2,3,4,5,6-pentahydroxyhexyl]piperazine-1-carboxamide], the EC50 is 1260 to 10000 nM. For `CCN(C[C@H](O)[C@@H](O)[C@H](O)[C@H](O)CO)C(=O)CCCC(C)c1ccc(Cl)c(COC2(c3cnccc3-c3ccccc3OC3CC3)CC2)c1` (stereo partly drawn) [Compound I-373, 5-[4-chloro-3-({1-[4-(2-cyclopropoxyphenyl)pyridin-3-yl]cyclopropoxy}methyl)phenyl]-N-ethyl-N-[(2S,3R,4R,5R)-2,3,4,5,6-pentahydroxyhexyl]hexanamide], the EC50 was less than 100 nM.

Regarding `CC(CCCC(=O)N(CCO)C[C@H](O)[C@@H](O)[C@H](O)[C@H](O)CO)c1ccc(Cl)c(COC2(c3cnccc3-c3ccccc3OC3CC3)CC2)c1` (stereo partly drawn) [Compound I-374, 5-[4-chloro-3-({1-[4-(2-cyclopropoxyphenyl)pyridin-3-yl]cyclopropoxy}methyl)phenyl]-N-(2-hydroxyethyl)-N-[(2S,3R,4R,5R)-2,3,4,5,6-pentahydroxyhexyl]hexanamide], the EC50 was less than 100 nM.

On to `CCN(C[C@H](O)[C@@H](O)[C@H](O)[C@H](O)CO)C(=O)CCCC(C)c1ccc(C)c(COC2(c3cnccc3-c3ccccc3OC3CC3)CC2)c1` (stereo partly drawn) [Compound I-375, 5-[3-({1-[4-(2-cyclopropoxyphenyl)pyridin-3-yl]cyclopropoxy}methyl)-4-methylphenyl]-N-ethyl-N-[(2S,3R,4R,5R)-2,3,4,5,6-pentahydroxyhexyl]hexanamide], for which the EC50 was less than 100 nM. Consider `Cc1ccc(C(C)CCCC(=O)N(CCO)C[C@H](O)[C@@H](O)[C@H](O)[C@H](O)CO)cc1COC1(c2cnccc2-c2ccccc2OC2CC2)CC1` (stereo partly drawn) [Compound I-376, 5-[3-({1-[4-(2-cyclopropoxyphenyl)pyridin-3-yl]cyclopropoxy}methyl)-4-methylphenyl]-N-(2-hydroxyethyl)-N-[(2S,3R,4R,5R)-2,3,4,5,6-pentahydroxyhexyl]hexanamide], for which the EC50 was less than 100 nM.

For the origin of these results see patent US12084472B2 (Ardelyx, Inc., priority 2015, dated 2024).
